The values below come from patent publication US8637090B2, “Gallium formulation for the treatment and prevention of infectious diseases” (Aridis Pharmaceuticals, priority 2009, dated 2014).

The subject of series [1] is Pseudomonas aeruginosa (Pa). Conditions: against Pa; cited from earlier work.
The subject of a further series is Pa. Conditions: mouse; nasal instillation of a bolus of liquid; also under in vivo Pa biofilm colonization conditions; cited from earlier work.
A further series deals with B. anthracis 7702 cells. Format: cell-based. The settings on record: 1:1 gallium-to-citrate, approximately 20 hours of growth.
Series [2] is described as follows: Crystallinity of spray dried gallium powders by powder X-ray diffraction. Conditions: qualitative analysis of crystallinity, XRD 5° to 75° 2θ. Format: physicochemical. How it is done:
Crystallinity of the spray dried gallium powders was determined using a Philips X-Pert Pro MPD powder diffractometer. The radiation used was generated by a Cu Kα source with a wavelength of 1.5406 Å at 45 kV and 40 mA. Samples were scanned from 5° to 75° 2θ at a scanning rate of 1.2° 2θ/min using a slit width of 0.25°. Particular emphasis was placed on determining the effects of the various excipients on the crystallinity of the spray dried particles. The composition of the gallium formulations examined, as well as the residual moisture content and a qualitative analysis of crystallinity are shown in Table 8. X-ray diffractometer (XRD) scans reveal that spray dried gallium nitrate is amorphous as are mannitol and L-leucine (FIG. 5). Sodium citrate, however, is crystalline and the crystallinity is maintained even in the presence of other excipients.

Where two headings read alike, the source gives them in different places.

Consider `O=[N+]([O-])[O-].O=[N+]([O-])[O-].O=[N+]([O-])[O-].[Ga+3]` [Gallium, gallium nitrate], for which the “bactericidal concentration (MBC)” value in series [1] is “approximately 0.7 μg/mL”. Further, the “minimum inhibitory concentration (MIC90)” value in series [1] is recorded as “approximately 0.7 μg/mL”. For the same compound, the “protection after lethal i.t. Pa inoculation” value in the series on Pa is “good protection”. Also, the OD600 nm came to 0.000 in the series on B. anthracis 7702 cells (Gallium concentration 6.8 μM); 0.000 in the series on B. anthracis 7702 cells (Gallium concentration 23.3 μM); 0.001 with B. anthracis 7702 cells (Gallium concentration 27.1 μM); 0.003 in the series on B. anthracis 7702 cells (Gallium concentration 88.9 μM); 0.000 in the series with B. anthracis 7702 cells (Gallium concentration 614.8 μM); 0.000 in the series on B. anthracis 7702 cells (Gallium concentration 1709.9 μM). Also, the Crystalline/Amorphous result in series [2] was “amorphous”.
